Experimental data published in publication PMC9721025, “Pharmacokinetic study of the main components of Tanreqing capsules and Tanreqing injections in beagles by liquid chromatography–tandem mass spectrometry” (Chinese Medicine, 2022).

Legend:
[1] = Pharmacokinetics in beagles, single-dose regimen of TRQI (i.v.) or TRQC (oral), plasma LC-MS/MS; assay type: in vivo, beagle; conditions: beagle, dog, plasma; for AUC(0-t): read-out: AUC0–24 h; for Cmax / Tmax / half-life: mean of six beagles
Method: (§1) 100 μL plasma sample was drawn and transferred to 1.5 mL centrifuge tube prior to 300 μL protein precipitant (3:1 [v/v] methanol/acetonitrile, containing 0.1% formic acid and 100 ng/mL IS) was added, and then the sample was vortex-mixed for 3 min. The mixture was centrifuged at 20,000 ×g for 10 min, and 100 μL supernatant was transferred to the injection vial and analyzed directly by LC–MS/MS.
(§2) This study was carried out in six beagles (three males and three females, 9.0–12.0 kg each), that were purchased from Junda Pet Hospital (Shanghai, China). This experimental protocol was approved by the Experimental Animal Ethics Committee of the Naval Military Medical University (Shanghai, China).
The six healthy beagles were divided into two groups: beagles 1–3 were all male and were assigned to the first group, and beagles 4–6 were all females and assigned to the second group. The two-cycle, crossover study was designed with a 7-day wash out period. For the single-administration process, the dogs in the first group were injected intravenously with 0.5 mL/kg TRQI (one-third of the normal daily dose), and blood samples were collected at 0, 5, 10, 15, 20, 30, and 45 min and then at 1, 2, 4, 6, 8, 12, and 24 h (a total of 14 time points) after injection. For each blood sample, 1 mL of blood was collected from the forelimb vein in heparin-treated tubes. The dogs in the second group were orally administrated 0.09 g/kg TRQC (one-third of the normal daily dose, and blood samples were collected in the same manner at 0, 10, 20, and 40 min and then at 1, 1.5, 2, 2.5, 3, 4, 6, 8, 12, and 24 h (a total of 14 time points). All blood samples were centrifuged at 4000 × g for 5 min, and each supernatant was collected and aliquoted. After a 7-day wash out period, the dogs in each group were administrated the other Tanreqing formulation in a crossover design, and blood samples were collected and processed in the same way.
(§3) All data obtained were analyzed using Drug and Statistics (DAS) 2.0 software (Chinese Society of Pharmacology), and a non-compartment analysis was used to calculate plasma pharmacokinetic parameters. The principal components of TRQI and TRQC were compared with an analysis of variance (ANOVA) and/or a two-tailed student-t test.

[2] = Pharmacokinetics in beagles, multiple-dose regimen (once per day for 7 days) of TRQI or TRQC, plasma LC-MS/MS; assay type: in vivo; conditions: beagle, dog; for Cmax at 7 days / Tmax at 7 days / half-life at 7 days: mean
Method: as §1, §2
After the end of the single-dose experiment, the dogs in group one were given 0.5 mL/kg injection of TRQI once per day for 7 days following the wash out period, and the dogs in group two were given 0.09 g/kg TRQC once per day for 7 days. After the seventh administration, blood samples were collected at 0, 10, 20, and 40 min and then at 1, 1.5, 2, 2.5, 3, 4, 6, 8, 12, and 24 h (a total of 14 time points) and were processed as described in “Single-dose regimen” section. The resulting plasma samples were used to determine the steady-state plasma concentration of TRQI and TRQC. A crossover study was again carried out in both groups, as described in “Single-dose regimen” section, after a 7-day washing period.
as §3

[3] = Stability of analytes in dog plasma (QC samples); assay type: in vitro ADME
Method: The stock solutions of all analytes were further mixed and diluted with methanol/water (10:90, v/v) solution to prepare the working solutions. […] The QC samples were stored in a refrigerator at – 80 °C until retrieval (see Additional file 1). The stability, which includes short-term stability (6 h at room temperature), long-term stability (− 80 °C for 30 days in the refrigerator), and freeze–thaw stability (three cycles from − 80 °C to room temperature), were assessed using QC samples at three concentration levels in three replicates. […] Similarly, there were no obvious effects on the analysis results of the samples with respect to short-term stability or long-term storage.

[4] = both sexes, iv, single i.v. dose of TRQI 0.5 mL/kg
[5] = both sexes, single oral dose of TRQC 0.09 g/kg
[6] = both sexes, iv, TRQI 0.5 mL/kg once per day for 7 days
[7] = both sexes, po, TRQC 0.09 g/kg once per day for 7 days
[8] = n = 3, high QC: nominal 200 ng/mL baicalin, 1000 ursodeoxycholic acid, 100 chenodeoxycholic acid and chlorogenic acid
[9] = n = 3, low QC: nominal 4 ng/mL baicalin, 20 ursodeoxycholic acid, 2 chenodeoxycholic acid and chlorogenic acid
[10] = n = 3, middle QC: nominal 20 ng/mL baicalin, 100 ursodeoxycholic acid, 10 chenodeoxycholic acid and chlorogenic acid

O=C(/C=C/c1ccc(O)c(O)c1)O[C@@H]1C[C@](O)(C(=O)O)C[C@@H](O)[C@H]1O [Chlorogenic acid, chlorogenic acid]
AUC(0-t) ([1]; both sexes, iv, 0.5 mL/kg, single TRQI 0.5 mL/kg, Mean): 20.3 ng·h/mL | Cmax [1, 4]: 26.6 ng/mL | Tmax [1, 4]: 0.13 h | half-life [1, 4]: 0.89 h | AUC(0-t) ([1]; both sexes, po, 0.09 g/kg, single TRQCs 0.09 g/kg, Mean): 29.1 ng·h/mL | Cmax [1, 5]: 8.58 ng/mL | Tmax [1, 5]: 3.75 h | half-life [1, 5]: 1.45 h | AUC(0-t) ([1]; female, iv, 0.5 mL/kg, single TRQI 0.5 mL/kg, beagle No 4): 11.2 ng·h/mL | AUC(0-t) ([1]; female, iv, 0.5 mL/kg, single TRQI 0.5 mL/kg, beagle No 5): 15.2 ng·h/mL | AUC(0-t) ([1]; female, iv, 0.5 mL/kg, single TRQI 0.5 mL/kg, beagle No 6): 24.8 ng·h/mL | AUC(0-t) ([1]; female, po, 0.09 g/kg, single TRQCs 0.09 g/kg, beagle No 4): 13.9 ng·h/mL | AUC(0-t) ([1]; male, iv, 0.5 mL/kg, single TRQI 0.5 mL/kg, beagle No 1): 29.6 ng·h/mL | AUC(0-t) ([1]; male, iv, 0.5 mL/kg, single TRQI 0.5 mL/kg, beagle No 2): 17.8 ng·h/mL | AUC(0-t) ([1]; male, po, 0.09 g/kg, single TRQCs 0.09 g/kg, beagle No 1): 21.1 ng·h/mL | AUC(0-t) ([1]; male, po, 0.09 g/kg, single TRQCs 0.09 g/kg, beagle No 2): 48.1 ng·h/mL | AUC(0-t) ([1]; male, po, 0.09 g/kg, single TRQCs 0.09 g/kg, beagle No 3): 33.2 ng·h/mL | AUC(0-inf) ([2]; both sexes, iv, 0.5 mL/kg, TRQI 0.5 mL/kg for 7 days, Mean): 15.9 ng·h/mL | AUC(0-t) ([2]; both sexes, iv, 0.5 mL/kg, TRQI 0.5 mL/kg for 7 days, Mean, read-out: AUC0–24 h): 15.4 ng·h/mL | Cmax at 7 days [2, 6]: 20.3 ng/mL | Tmax at 7 days [2, 6]: 0.18 h | half-life at 7 days [2, 6]: 0.88 h | AUC(0-inf) ([2]; both sexes, po, 0.09 g/kg, TRQC 0.09 g/kg for 7 days, Mean): 12.3 ng·h/mL | AUC(0-t) ([2]; both sexes, po, 0.09 g/kg, TRQC 0.09 g/kg for 7 days, Mean, read-out: AUC0–24 h): 11.7 ng·h/mL | Cmax at 7 days [2, 7]: 3.9 ng/mL | Tmax at 7 days [2, 7]: 3.17 h | half-life at 7 days [2, 7]: 1.56 h | AUC(0-inf) ([2]; female, iv, 0.5 mL/kg, TRQI 0.5 mL/kg for 7 days, beagle No. 4): 19.3 ng·h/mL | AUC(0-t) ([2]; female, iv, 0.5 mL/kg, TRQI 0.5 mL/kg for 7 days, beagle No. 4, read-out: AUC0–24 h): 19.1 ng·h/mL | AUC(0-inf) ([2]; female, iv, 0.5 mL/kg, TRQI 0.5 mL/kg for 7 days, beagle No. 5): 24.4 ng·h/mL | AUC(0-t) ([2]; female, iv, 0.5 mL/kg, TRQI 0.5 mL/kg for 7 days, beagle No. 5, read-out: AUC0–24 h): 23.9 ng·h/mL | AUC(0-inf) ([2]; female, iv, 0.5 mL/kg, TRQI 0.5 mL/kg for 7 days, beagle No. 6): 30.7 ng·h/mL | AUC(0-t) ([2]; female, iv, 0.5 mL/kg, TRQI 0.5 mL/kg for 7 days, beagle No. 6, read-out: AUC0–24 h): 30 ng·h/mL | AUC(0-inf) ([2]; female, po, 0.09 g/kg, TRQC 0.09 g/kg for 7 days, beagle No. 4): 23.2 ng·h/mL | AUC(0-t) ([2]; female, po, 0.09 g/kg, TRQC 0.09 g/kg for 7 days, beagle No. 4, read-out: AUC0–24 h): 22.6 ng·h/mL | AUC(0-inf) ([2]; female, po, 0.09 g/kg, TRQC 0.09 g/kg for 7 days, beagle No. 5): 13.3 ng·h/mL | AUC(0-t) ([2]; female, po, 0.09 g/kg, TRQC 0.09 g/kg for 7 days, beagle No. 5, read-out: AUC0–24 h): 11.4 ng·h/mL | AUC(0-inf) ([2]; female, po, 0.09 g/kg, TRQC 0.09 g/kg for 7 days, beagle No. 6): 27 ng·h/mL | AUC(0-t) ([2]; female, po, 0.09 g/kg, TRQC 0.09 g/kg for 7 days, beagle No. 6, read-out: AUC0–24 h): 26.9 ng·h/mL | AUC(0-inf) ([2]; male, iv, 0.5 mL/kg, TRQI 0.5 mL/kg for 7 days, beagle No. 1): 6.07 ng·h/mL | AUC(0-t) ([2]; male, iv, 0.5 mL/kg, TRQI 0.5 mL/kg for 7 days, beagle No. 1, read-out: AUC0–24 h): 6.07 ng·h/mL | AUC(0-inf) ([2]; male, iv, 0.5 mL/kg, TRQI 0.5 mL/kg for 7 days, beagle No. 2): 5.59 ng·h/mL | AUC(0-t) ([2]; male, iv, 0.5 mL/kg, TRQI 0.5 mL/kg for 7 days, beagle No. 2, read-out: AUC0–24 h): 5.24 ng·h/mL | AUC(0-inf) ([2]; male, iv, 0.5 mL/kg, TRQI 0.5 mL/kg for 7 days, beagle No. 3): 9.2 ng·h/mL | AUC(0-t) ([2]; male, iv, 0.5 mL/kg, TRQI 0.5 mL/kg for 7 days, beagle No. 3, read-out: AUC0–24 h): 8.21 ng·h/mL | AUC(0-inf) ([2]; male, po, 0.09 g/kg, TRQC 0.09 g/kg for 7 days, beagle No. 1): 1.31 ng·h/mL | AUC(0-t) ([2]; male, po, 0.09 g/kg, TRQC 0.09 g/kg for 7 days, beagle No. 1, read-out: AUC0–24 h): 0.72 ng·h/mL | AUC(0-inf) ([2]; male, po, 0.09 g/kg, TRQC 0.09 g/kg for 7 days, beagle No. 2): 3.2 ng·h/mL | AUC(0-t) ([2]; male, po, 0.09 g/kg, TRQC 0.09 g/kg for 7 days, beagle No. 2, read-out: AUC0–24 h): 3.19 ng·h/mL | AUC(0-inf) ([2]; male, po, 0.09 g/kg, TRQC 0.09 g/kg for 7 days, beagle No. 3): 5.62 ng·h/mL | AUC(0-t) ([2]; male, po, 0.09 g/kg, TRQC 0.09 g/kg for 7 days, beagle No. 3, read-out: AUC0–24 h): 5.21 ng·h/mL | Freeze-thaw stability (3 cycles) Mean ± S.D. concentration [3, 8]: 95.65 ± 3.72 ng/mL | Long-term stability (30 days at – 80 °C) Mean ± S.D. concentration [3, 8]: 87.31 ± 4.62 ng/mL | Short-term stability (6 h at room temperature) Mean ± S.D concentration [3, 8]: 88.28 ± 2.72 ng/mL | Freeze-thaw stability (3 cycles) Mean ± S.D. concentration [3, 9]: 2.07 ± 0.17 ng/mL | Long-term stability (30 days at – 80 °C) Mean ± S.D. concentration [3, 9]: 1.73 ± 0.05 ng/mL | Short-term stability (6 h at room temperature) Mean ± S.D concentration [3, 9]: 1.98 ± 0.16 ng/mL | Freeze-thaw stability (3 cycles) Mean ± S.D. concentration [3, 10]: 10.03 ± 0.84 ng/mL | Long-term stability (30 days at – 80 °C) Mean ± S.D. concentration [3, 10]: 8.95 ± 0.42 ng/mL | Short-term stability (6 h at room temperature) Mean ± S.D concentration [3, 10]: 8.97 ± 0.70 ng/mL
